Assay: xn = mol fraction of the nth substance listed

CCCCCCCCCCCC(=O)OCC + CCCCCO
viscosity [mPa·s], 101.33 kPa
Settings | x2 = 0.1 | x2 = 0.2 | x2 = 0.2999 | x2 = 0.4 | x2 = 0.4999 | x2 = 0.6 | x2 = 0.7 | x2 = 0.8 | x2 = 0.9
293.15 K | 3.228 | 3.128 | 3.064 | 3.018 | 2.992 | 2.994 | 3.044 | 3.147 | 3.437
298.15 K | 2.884 | 2.802 | 2.741 | 2.699 | 2.68 | 2.667 | 2.706 | 2.783 | 3.024
303.15 K | 2.603 | 2.515 | 2.46 | 2.424 | 2.387 | 2.383 | 2.403 | 2.479 | 2.663
308.15 K | 2.349 | 2.275 | 2.238 | 2.173 | 2.141 | 2.131 | 2.142 | 2.201 | 2.351
313.15 K | 2.12 | 2.065 | 2.014 | 1.954 | 1.926 | 1.913 | 1.919 | 1.963 | 2.074
318.15 K | 1.948 | 1.888 | 1.852 | 1.801 | 1.765 | 1.745 | 1.735 | 1.776 | 1.867
323.15 K | 1.759 | 1.699 | 1.658 | 1.601 | 1.569 | 1.546 | 1.553 | 1.584 | 1.652

CCOC(=O)CC(=O)OCC + CCC(=O)CC
viscosity [mPa·s], 101 kPa
Settings | x1 = 0.0736 | x1 = 0.1356 | x1 = 0.2458 | x1 = 0.3326 | x1 = 0.4124 | x1 = 0.5158 | x1 = 0.6256 | x1 = 0.7456 | x1 = 0.8626 | x1 = 0.9415
303.15 K | 0.488 | 0.535 | 0.633 | 0.725 | 0.814 | 0.94 | 1.094 | 1.273 | 1.475 | 1.627
308.15 K | 0.45 | 0.493 | 0.58 | 0.658 | 0.742 | 0.859 | 0.999 | 1.162 | 1.341 | 1.478
313.15 K | 0.437 | 0.477 | 0.56 | 0.633 | 0.708 | 0.812 | 0.938 | 1.089 | 1.25 | 1.375

CCCN(CCC)CCC + C1CCCCC1
viscosity [mPa·s], 101 kPa
Settings | x1 = 0.01088 | x1 = 0.02001 | x1 = 0.0305 | x1 = 0.04057 | x1 = 0.05108 | x1 = 0.05957 | x1 = 0.06928 | x1 = 0.07872 | x1 = 0.08785
303.15 K | 0.8118 | 0.8071 | 0.8005 | 0.7936 | 0.7874 | 0.7784 | 0.7721 | 0.766 | 0.7599
313.15 K | 0.7082 | 0.6992 | 0.6899 | 0.6808 | 0.673 | 0.6664 | 0.6605 | 0.6541 | 0.6465

CCCN(CCC)CCC + CCC(=O)O
viscosity [mPa·s], 101 kPa
Settings | x2 = 0.1 | x2 = 0.4 | x2 = 0.5 | x2 = 0.6 | x2 = 0.7 | x2 = 0.75 | x2 = 0.775 | x2 = 0.8 | x2 = 0.9
293.15 K | 0.734 | 4.43 | 5.62 | 5.97 | 13.95 | 20.55 | 23.47 | 23.75 | 8.57
298.15 K | 0.664 | 3.85 | 5.12 | 5.22 | 11.2 | 16.25 | 18.67 | 18.96 | 7.5
303.15 K | 0.589 | 3.5 | 4.35 | 4.5 | 9.2 | 13.02 | 15 | 15.59 | 6.47
308.15 K | 0.54 | 3.1 | 3.75 | 3.8 | 7.7 | 10.85 | 12.22 | 12.77 | 5.81
313.15 K | 0.51 | 2.8 | 3.62 | 3.35 | 6.52 | 9 | 10.32 | 10.76 | 5.04
318.15 K | 0.499 | 2.45 | 3.03 | 3 | 5.57 | 7.62 | 8.68 | 8.96 | 4.4
323.15 K | 0.464 | 2.22 | 2.75 | 2.67 | 4.82 | 6.46 | 7.44 | 7.72 | 4.05

Cc1ccc(C(C)C)c(O)c1 + CC(C)[C@@H]1CC[C@@H](C)C[C@H]1O
Settings | viscosity [mPa·s]
293.15 K, 100 kPa, x1 = 0.333 | 68.78
293.15 K, 100 kPa, x1 = 0.5 | 54.01
298 K, 101 kPa, x2 = 0.2 | 25.3
298 K, 101 kPa, x2 = 0.25 | 26.8
298 K, 101 kPa, x2 = 0.333 | 32
298.15 K, 100 kPa, x1 = 0.333 | 43.86
298.15 K, 100 kPa, x1 = 0.5 | 35.41
303.15 K, 100 kPa, x1 = 0.333 | 29.46
303.15 K, 100 kPa, x1 = 0.5 | 24.33
308.15 K, 100 kPa, x1 = 0.333 | 20.66
308.15 K, 100 kPa, x1 = 0.5 | 17.41
313.15 K, 100 kPa, x1 = 0.333 | 15.01
313.15 K, 100 kPa, x1 = 0.5 | 12.89
318.15 K, 100 kPa, x1 = 0.333 | 11.25
318.15 K, 100 kPa, x1 = 0.5 | 9.84
323.15 K, 100 kPa, x1 = 0.333 | 8.69
323.15 K, 100 kPa, x1 = 0.5 | 7.72

CC(O)CN1CC[NH+](CC(C)O)CC1.CC(O)CN1CC[NH+](CC(C)O)CC1.O=S(=O)([O-])[O-] (stereo not given) + O
viscosity [mPa·s], 101 kPa
Settings | 298.15 K | 303.15 K | 308.15 K | 313.15 K | 318.15 K | 323.15 K
x1 = 0.0024 | 1.1 | 0.975 | 0.869 | 0.816 | 0.721 | 0.665
x1 = 0.00505 | 1.382 | 1.232 | 1.111 | 1.026 | 0.906 | 0.807
x1 = 0.00812 | 1.834 | 1.634 | 1.434 | 1.355 | 1.176 | 1.025
x1 = 0.0117 | 2.454 | 2.221 | 1.934 | 1.739 | 1.513 | 1.311
x1 = 0.0158 | 3.565 | 3.115 | 2.653 | 2.327 | 2.009 | 1.727
x1 = 0.0208 | 5.31 | 4.49 | 3.747 | 3.216 | 2.675 | 2.282

CCN(CC)c1ccccc1 + CC(=O)O
viscosity [mPa·s], 101 kPa
Settings | 298.15 K | 318.15 K
x2 = 0.0992 | 2.081 | 1.363
x2 = 0.1985 | 2.343 | 1.489
x2 = 0.2959 | 2.722 | 1.597
x2 = 0.3986 | 3.462 | 1.91
x2 = 0.5022 | 4.639 | 2.408
x2 = 0.598 | 6.4 | 3.1
x2 = 0.7002 | 9.548 | 4.198
x2 = 0.7469 | 10.94 | 4.721
x2 = 0.7982 | 12 | 5.159
x2 = 0.8467 | 10.95 | 4.965
x2 = 0.9027 | 6.538 | 3.527

CCCC[NH3+].O=[N+]([O-])[O-] + O
Settings | viscosity [mPa·s]
298.15 K, 101 kPa, x1 = 0.9022 | 65.05
